The record followed here is patent publication US12540148B2, “Lipophosphonoxins, their preparation and use” (USTAV ORGANICKE CHEMIE A BIOCHEMIE AV CR, V. V. I., priority 2019, dated 2026).

The term MIC denotes the least concentration at which growth counts as inhibited. High values mean a less susceptible organism, low ones a more susceptible organism.

Holding throughout (assay type): cell-based
Series [1] relates to Enterococcus faecalis ATCC 29212 = CCM 4224. Description: MIC, microdilution method. The procedure: (§1) Disposable microtiter plates are used for testing. Samples are dissolved in infusion medium from brain and heart (BHI, HiMedia Laboraties Pvt. Ltd., Czech Republic) and Mueller-Hinton broth (HiMedia Laboraties, see above) to a final concentration ranging from 200 μg/ml to 1.5625 μg/ml. Plates are inoculated with a standard amount of test bacteria—the density of the inoculum in the well corresponds to 10^5-6 CFU/ml (colony forming units/ml, i.e. the number of viable bacterial cells/ml). MIC values are read after 24/48 hours of incubation at 37° C. as the minimum inhibitory concentration of the test substance at which bacterial growth is inhibited. The minimum bactericidal concentration (MBC) is characterized as the minimum concentration of the sample required to achieve irreversible inhibition, i.e. to kill the bacteria after a defined incubation period. MBC is determined by the inoculation method. Using an applicator, 10 μl from the well of a microtiter plate with a defined concentration of the test substance is taken to inoculate the surface of blood agar (Trios, Czech Republic). MBC is determined as the lowest concentration that inhibits the visible growth of the bacterium used on agar.
A general note: Broth dilution looks for growth in wells or tubes with falling amounts of substance.

Series [2] deals with Staphylococcus aureus 4591. As to the kind of experiment: MIC, microdilution method. The procedure:
as §1

For another series, the system named is Escherichia coli CE5556. Description: MIC, microdilution method. As to the method:
as §1

Series [3] has as its system Pseudomonas aeruginosa ATCC 27853 = CCM 3955. As to the kind of experiment: MIC, microdilution method. The procedure:
as §1

Series [4] concerns Staphylococcus epidermidis CCM 7221. Description: MIC, microdilution method. As to the method:
as §1

Series [5] has as its system Escherichia coli ATCC 25922 = CCM 3954. As to the kind of experiment: MIC, microdilution method. The procedure: as §1
The test system of series [6] is Enterococcus faecium 419/ANA. Description: MIC, microdilution method. As to the method: as §1
Another series deals with Pseudomonas aeruginosa R. Description: MIC, microdilution method. The procedure:
as §1

The subject of series [7] is Staphylococcus aureus ATCC 29213 = CCM 4223. Description: MIC, microdilution method. As to the method:
as §1

Series [8] deals with Candida albicans ATCC 90028 = CCM 8161. As to the kind of experiment: MIC, microdilution method.
The subject of the next series is erythrocytes. As to the kind of experiment: Haemolytic activity of soluble samples. The procedure:
Blood from three donors is mixed and centrifuged (10 min, 1000 g, 4° C.). The erythrocytes obtained are washed three times with NaCl solution (150 mmol·l^−1) and then used for experiments. Sample stock solutions are prepared in DMSO so that the final concentration of DMSO in NaCl is 0.5% (v/v). NaCl solution with the appropriate volume of DMSO serves as the negative control. 1% Triton-X100 is the positive control. The erythrocytes obtained are diluted to 2% with NaCl solution and pipetted into Eppendorf tubes (250 μl) with constant stirring. Samples and positive and negative controls are added to the erythrocytes prepared in this way and incubated (3 hours, 37° C.). The tubes are stirred during the incubation. After centrifugation (5 min, 1000 g), haemolytic activity is monitored by haemoglobin determination. The HC50 value is calculated from the measured absorbance values. The test is performed in triplets in three independent replicates. Iron Fe^2+ in haemoglobin is oxidized with potassium ferricyanide to iron Fe^3+ in methaemoglobin, which produces stable cyanomethaemoglobin with potassium cyanide, the concentration of which is determined spectrophotometrically. After the incubation of the erythrocytes with the substances, the cells are centrifuged (5 min, 1000 g), then Drabkin's solution (200 μl) is added to the supernatant (40 μl) and after incubation (10 min), the absorbance at 540 nm is measured.

The next series relates to Enterobacter kobei 3683. As to the kind of experiment: MIC, microdilution method. As to the method: as §1
[9] abbreviates: Staphylococcus epidermidis, CCM7221.
Where [10] appears, read: Escherichia coli, 24/48 hours at 37° C.

Values after ≈ are worked out from the molar mass of the structure shown. Where a name gives a salt, the structure may show the parent alone. Read-outs that look alike come from different tables or passages of the source.

Take `CCCC/C=C\CCOP(=O)(CCN(CCCN)CCCN)OCCCCCCOP(=O)(CCN(CCCN)CCCN)OCC/C=C\CCCC` (stereo not shown) [Example 57, Hexane-1,6-diyl di((Z)-oct-3-en-1-yl) bis((2-(bis(3-aminopropyl)amino)-ethyl)phosphonate) hexahydrochloride]: the MIC in series [1] (Enterococcus faecalis) worked out at 16 µg/mL; in series [2] (Staphylococcus aureus, 4591), 1 µg/mL; in the series on Escherichia coli CE5556 (Escherichia coli, CE5556) it was 2 µg/mL; in series [3] (Pseudomonas aeruginosa), 16 µg/mL; in series [4] (setting [9]) it was 0.5 µg/mL; in series [5] (Escherichia coli), 2 µg/mL. The MIC is 64 µg/mL in [6] (Enterococcus faecium, 419/ANA); 16 µg/mL in the series on Pseudomonas aeruginosa R (Pseudomonas aeruginosa); 1 µg/mL in series [7] (Staphylococcus aureus); 64 µg/mL in series [8] (Candida albicans). The “HC50 ± SD” value in the series on erythrocytes is recorded as 34.8.

Regarding `CCCC/C=C\CCOP(=O)(CCN(CCCN)CCCN)OCCCCCOP(=O)(CCN(CCCN)CCCN)OCC/C=C\CCCC` (stereo not shown) [Example 58, Di((Z)-oct-3-en-1-yl) pentane-1,5-diyl bis((2-(bis(3-aminopropyl)amino)ethyl)-phosphonate) hexahydrochloride], the MIC in series [1] (Enterococcus faecalis) is 2 µg/mL; in [2] (Staphylococcus aureus, 4591), 128 µg/mL; in the series with Escherichia coli CE5556 (Escherichia coli, CE5556), 4 µg/mL; in [3] (Pseudomonas aeruginosa) it was 32 µg/mL; in series [4] (setting [9]), 2 µg/mL; in series [5] (Escherichia coli), 8 µg/mL. Moreover, the MIC was 4 µg/mL in series [6] (Enterococcus faecium, 419/ANA); 32 µg/mL with Pseudomonas aeruginosa R (Pseudomonas aeruginosa); 0.5 µg/mL in series [7] (Staphylococcus aureus); 64 µg/mL in series [8] (Candida albicans). Besides, the “HC50 ± SD” value in the series on erythrocytes stood at 70.

“Dihexyl tetradecan-1,14-diyl bis((2-(bis(3-aminopropyl)amino)ethyl)-phosphonate) tetrahydrochloride [Example 54]”: the MIC was above 128 µg/mL against Enterobacter kobei 3683; 8 µg/mL in [1]; 1 µg/mL in [2]; 16 µg/mL against Escherichia coli CE5556; 8 µg/mL in series [3]; 0.5 µg/mL in [4]. Also, the MIC in series [5] worked out at 4 µg/mL; in series [6], 64 µg/mL; against Pseudomonas aeruginosa R (24/48 hours at 37° C.), 8 µg/mL; in series [7], 1 µg/mL; in [8] it was 16 µg/mL. The “HC50 ± SD” value in the series on erythrocytes is on record as above 100.

`CC(C)COP(=O)(CCN(CCCN)CCCN)OCCCCCCCCCCOP(=O)(CCN(CCCN)CCCN)OCC(C)C` (stereo not shown) [Example 40, Diisobutyl decane-1,10-diyl bis((2-(bis(3-aminopropyl)amino)ethyl)-phosphonate) hexahydrochloride]: the MIC is above 128 µg/mL with Enterobacter kobei 3683 (Enterobacter kobei, 3683); 128 µg/mL in [1] (Enterococcus faecalis); 8 µg/mL in [2] (Staphylococcus aureus, 4591); above 128 µg/mL in the series on Escherichia coli CE5556 (Escherichia coli, CE5556); above 128 µg/mL in series [3] (Pseudomonas aeruginosa); 4 µg/mL in [4] (setting [9]). Further, the MIC in series [5] (Escherichia coli) is above 128 µg/mL; in series [6] (Enterococcus faecium, 419/ANA) it was above 128 µg/mL; against Pseudomonas aeruginosa R (Pseudomonas aeruginosa), above 128 µg/mL; in [7] (Staphylococcus aureus), 16 µg/mL; in series [8] (Candida albicans), 128 µg/mL. Moreover, the “HC50 ± SD” value with erythrocytes was above 100.

On to `NCCCN(CCCN)CCP(=O)(OCCCCCCCCCCCCOP(=O)(CCN(CCCN)CCCN)OCCc1ccccc1)OCCc1ccccc1` (stereo not shown) [Example 50], for which the MIC with Enterobacter kobei 3683 (Enterobacter kobei, 3683) was determined as 8 µg/mL (≈ 9.38 µM); in series [1] (Enterococcus faecalis) it was 4 µg/mL (≈ 4.69 µM); in series [2] (Staphylococcus aureus, 4591), 1 µg/mL (≈ 1.17 µM); in the series on Escherichia coli CE5556 (Escherichia coli, CE5556) it was 2 µg/mL (≈ 2.34 µM); in series [3] (Pseudomonas aeruginosa), 4 µg/mL (≈ 4.69 µM); in series [4] (setting [9]) it was 0.5 µg/mL (≈ 0.586 µM). Further, the MIC in [5] (Escherichia coli) was 16 µg/mL (≈ 18.8 µM); in series [6] (Enterococcus faecium, 419/ANA) it was 2 µg/mL (≈ 2.34 µM); in the series on Pseudomonas aeruginosa R (Pseudomonas aeruginosa), 2 µg/mL (≈ 2.34 µM); in series [7] (Staphylococcus aureus) it was 2 µg/mL (≈ 2.34 µM); in series [8] (Candida albicans), 4 µg/mL (≈ 4.69 µM). The “HC50 ± SD” value in the series with erythrocytes is given as above 100.

For the compound `CC(C)COP(=O)(CCN(CCCN)CCCN)OCCCCCCCCCCCCCCOP(=O)(CCN(CCCN)CCCN)OCC(C)C` (stereo not shown) [Example 51, Tetradecane-1,14-diyl diisobutyl bis((2-(bis(3-aminopropyl)amino)ethyl)-phosphonate) hexahydrochloride], the minimum inhibitory concentration (MIC) against Enterobacter kobei 3683 (Enterobacter kobei, 3683) is 64 µg/mL; in series [1] (Enterococcus faecalis) it was 4 µg/mL; in series [2] (Staphylococcus aureus, 4591), 2 µg/mL; in the series with Escherichia coli CE5556 (Escherichia coli, CE5556), 32 µg/mL; in series [3] (Pseudomonas aeruginosa), 4 µg/mL; in series [4] (setting [9]), 0.5 µg/mL. Moreover, the MIC in series [5] (Escherichia coli) is 16 µg/mL; in series [6] (Enterococcus faecium, 419/ANA), 16 µg/mL; in the series on Pseudomonas aeruginosa R (Pseudomonas aeruginosa), 4 µg/mL; in series [7] (Staphylococcus aureus), 2 µg/mL; in series [8] (Candida albicans), 32 µg/mL. In addition, the “HC50 ± SD” value with erythrocytes is above 100.

Turning to “Dibutyl dodecane-1,12-diyl bis((2-(bis(3-aminopropyl)amino)ethyl)-phosphonate) hexahydrochloride [Example 47]”, the MIC against Enterobacter kobei 3683 was determined as 128 µg/mL; in series [1] it was 2 µg/mL; in [2], 1 µg/mL; against Escherichia coli CE5556 it was 32 µg/mL; in series [3] it was 4 µg/mL; in [4], 0.5 µg/mL. Also, the minimum inhibitory concentration (MIC) in [5] was determined as 16 µg/mL; in series [6], 16 µg/mL; against Pseudomonas aeruginosa R (24/48 hours at 37° C.) it was 4 µg/mL; in series [7], 1 µg/mL; in series [8], 16 µg/mL. In addition, the “HC50 ± SD” value in the series on erythrocytes is listed as above 100.

As to `CCCCCOP(=O)(CCN(CCCN)CCCN)OCCCCCCCCCCCCCCOP(=O)(CCN(CCCN)CCCN)OCCCCC.Cl.Cl.Cl.Cl.Cl.Cl` (stereo not shown) [Example 53, Tetradecane-1,14-diyl dipentyl bis((2-(bis(3-aminopropyl)amino)ethyl)-phosphonate) hexahydrochloride], the MIC in the series with Enterobacter kobei 3683 (Enterobacter kobei, 3683) amounted to 2 µg/mL; in [1] (Enterococcus faecalis) it was 1 µg/mL; in [2] (Staphylococcus aureus, 4591) it was 1 µg/mL; in the series with Escherichia coli CE5556 (Escherichia coli, CE5556), 1 µg/mL; in series [3] (Pseudomonas aeruginosa), 2 µg/mL; in series [4] (setting [9]), 0.5 µg/mL. The MIC in [5] (setting [10]) is 1 µg/mL; in [6] (Enterococcus faecium, 419/ANA) it was 2 µg/mL; in the series on Pseudomonas aeruginosa R (Pseudomonas aeruginosa) it was 4 µg/mL; in series [7] (Staphylococcus aureus), 0.5 µg/mL; in series [8] (Candida albicans), 2 µg/mL.

As for “Dodecan-1,10-diyl dioctyl bis((2-(bis(3-aminopropyl)amino)ethyl)-phosphonate) tetrahydrochloride [Example 49]”, the MIC stood at 128 µg/mL with Enterobacter kobei 3683; 4 µg/mL in [1]; 4 µg/mL in series [2]; 16 µg/mL in the series on Escherichia coli CE5556; 8 µg/mL in [3]; 0.5 µg/mL in series [4]. Moreover, the MIC in series [6] turned out to be 32 µg/mL; in the series on Pseudomonas aeruginosa R (24/48 hours at 37° C.) it was 8 µg/mL; in series [8], 8 µg/mL. Also, in the series on erythrocytes, the “HC50 ± SD” value is above 100.

Take `CCCCCOP(=O)(CCN(CCCN)CCCN)OCCCCCCCCOP(=O)(CCN(CCCN)CCCN)OCCCCC.Cl.Cl.Cl.Cl.Cl.Cl` (stereo not shown) [Example 37, Octane-1,8-diyl dipentyl bis((2-(bis(3-aminopropyl)amino)-ethyl)phosphonate) hexahydrochloride]: the MIC against Enterobacter kobei 3683 (Enterobacter kobei, 3683) is above 128 µg/mL; in [1] (Enterococcus faecalis), 16 µg/mL; in series [2] (Staphylococcus aureus, 4591), 2 µg/mL; against Escherichia coli CE5556 (Escherichia coli, CE5556), 8 µg/mL; in [3] (Pseudomonas aeruginosa), 16 µg/mL; in [4] (setting [9]) it was 0.5 µg/mL. For the same compound, the MIC in series [5] (Escherichia coli, 0% BSA) was 2 µg/mL; in [5] (Escherichia coli, 4% BSA) it was 4 µg/mL; in [5] (setting [10]), 2 µg/mL; in [6] (Enterococcus faecium, 419/ANA), above 128 µg/mL; in the series on Pseudomonas aeruginosa R (Pseudomonas aeruginosa), 64 µg/mL; in series [7] (4% BSA), 1 µg/mL. The MIC in series [7] (24/48 hours at 37° C.) was found to be 1 µg/mL; in [7] (Staphylococcus aureus), 1 µg/mL; in series [8] (Candida albicans), 32 µg/mL.
